Columns and labels:
Assay in all cases: radiometric in vitro kinase assay, autoradiography
Format in all cases: biochemical
[1] = target: T1, His-OST1 (Arabidopsis thaliana, UniProt Q940H6); details: 200 µM ATP plus [γ-32P]ATP, 10 mM MgCl2, pH 7.5, room temperature
T1 construct: gene SRK2E; 6 x His tag, expressed in E. coli BL21 (DE3); plasmid from Takahashi et al. 2020
T1 sequence (Q940H6 1-362): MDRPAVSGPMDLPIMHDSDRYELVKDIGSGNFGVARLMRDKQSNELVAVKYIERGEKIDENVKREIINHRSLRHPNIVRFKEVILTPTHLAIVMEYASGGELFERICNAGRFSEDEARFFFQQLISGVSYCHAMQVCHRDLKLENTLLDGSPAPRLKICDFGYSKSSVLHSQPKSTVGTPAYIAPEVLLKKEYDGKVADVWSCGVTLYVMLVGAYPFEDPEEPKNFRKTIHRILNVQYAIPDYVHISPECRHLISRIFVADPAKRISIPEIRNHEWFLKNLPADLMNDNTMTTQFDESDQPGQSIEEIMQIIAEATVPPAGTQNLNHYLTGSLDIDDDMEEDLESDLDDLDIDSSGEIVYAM

[2] = target: T2, His-M3K∂6 (Arabidopsis thaliana, UniProt Q9C9U5); details: autophosphorylation and histone phosphorylation; 200 µM ATP plus [γ-32P]ATP, labelled compound; 10 mM MgCl2; pH 7.5; room temperature
T2 construct: gene SIS8; 6 x His tag, expressed in E. coli BL21 (DE3); plasmid from Takahashi et al. 2020
T2 sequence (Q9C9U5 1-1030): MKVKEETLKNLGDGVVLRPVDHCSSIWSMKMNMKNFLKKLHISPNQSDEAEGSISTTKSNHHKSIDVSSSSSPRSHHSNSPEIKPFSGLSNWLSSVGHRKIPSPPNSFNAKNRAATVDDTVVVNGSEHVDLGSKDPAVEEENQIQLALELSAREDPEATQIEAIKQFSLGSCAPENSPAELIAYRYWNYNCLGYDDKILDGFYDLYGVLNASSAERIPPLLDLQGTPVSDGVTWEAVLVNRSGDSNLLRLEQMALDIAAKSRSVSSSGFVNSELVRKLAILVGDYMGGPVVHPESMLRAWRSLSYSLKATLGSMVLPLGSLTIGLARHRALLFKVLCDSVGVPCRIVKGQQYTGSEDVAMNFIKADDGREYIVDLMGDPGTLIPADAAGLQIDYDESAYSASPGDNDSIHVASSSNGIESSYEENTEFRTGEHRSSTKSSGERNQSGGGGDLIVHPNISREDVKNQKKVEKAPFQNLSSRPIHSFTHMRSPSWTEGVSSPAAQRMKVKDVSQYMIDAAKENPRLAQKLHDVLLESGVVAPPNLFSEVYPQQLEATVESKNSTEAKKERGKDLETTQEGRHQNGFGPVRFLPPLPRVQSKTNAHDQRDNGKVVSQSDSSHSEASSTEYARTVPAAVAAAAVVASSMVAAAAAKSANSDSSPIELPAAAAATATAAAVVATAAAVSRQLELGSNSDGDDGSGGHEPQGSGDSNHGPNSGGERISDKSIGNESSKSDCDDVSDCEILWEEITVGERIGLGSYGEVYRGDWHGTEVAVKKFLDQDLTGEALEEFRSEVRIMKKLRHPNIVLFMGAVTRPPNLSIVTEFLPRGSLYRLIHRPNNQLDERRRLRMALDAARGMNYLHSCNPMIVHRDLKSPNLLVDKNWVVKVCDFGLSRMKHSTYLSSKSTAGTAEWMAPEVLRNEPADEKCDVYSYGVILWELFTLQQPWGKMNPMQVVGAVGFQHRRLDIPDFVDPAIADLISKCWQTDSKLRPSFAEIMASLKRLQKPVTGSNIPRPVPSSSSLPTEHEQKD

[3] = target: T3, His-Raf12 (Arabidopsis thaliana, UniProt F4JMR7); details: autophosphorylation and histone phosphorylation; 200 µM ATP plus [γ-32P]ATP, labelled compound; 10 mM MgCl2; pH 7.5; room temperature
T3 construct: gene At4g23050; 6 x His tag, pET30a(+), expressed in E. coli BL21 (DE3); insert from cDNA of ABA-treated Col-0 leaf epidermis
T3 sequence (F4JMR7 1-735): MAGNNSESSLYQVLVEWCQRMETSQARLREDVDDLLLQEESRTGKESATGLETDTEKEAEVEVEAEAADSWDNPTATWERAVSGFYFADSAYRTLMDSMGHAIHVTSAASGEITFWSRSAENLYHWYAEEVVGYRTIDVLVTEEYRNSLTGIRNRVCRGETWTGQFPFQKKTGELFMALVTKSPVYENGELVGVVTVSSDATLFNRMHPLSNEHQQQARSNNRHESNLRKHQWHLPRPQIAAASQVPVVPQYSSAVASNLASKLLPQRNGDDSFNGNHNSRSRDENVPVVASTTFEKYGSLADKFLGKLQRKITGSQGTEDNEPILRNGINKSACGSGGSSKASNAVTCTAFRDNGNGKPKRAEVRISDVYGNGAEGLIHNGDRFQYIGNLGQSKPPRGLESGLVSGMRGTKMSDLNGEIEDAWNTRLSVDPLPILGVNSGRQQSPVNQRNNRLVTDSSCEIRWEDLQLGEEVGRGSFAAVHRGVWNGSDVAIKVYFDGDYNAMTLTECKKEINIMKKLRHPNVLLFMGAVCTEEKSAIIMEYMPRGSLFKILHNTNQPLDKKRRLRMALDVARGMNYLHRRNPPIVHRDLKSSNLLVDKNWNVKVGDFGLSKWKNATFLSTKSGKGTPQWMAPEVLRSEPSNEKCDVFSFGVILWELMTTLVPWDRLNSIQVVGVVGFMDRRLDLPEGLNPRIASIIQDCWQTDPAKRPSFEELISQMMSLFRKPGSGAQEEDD

| Structure (SMILES) | radiometric in vitro kinase assay, autoradiography ([1]; autophosphorylation and histone phosphorylation, labelled compound) | radiometric in vitro kinase assay, autoradiography [2] | radiometric in vitro kinase assay, autoradiography [3] | radiometric in vitro kinase assay, autoradiography ([1]; 100 µM K252a, 20 min preincubation, histone substrate) |
| --- | --- | --- | --- | --- |
| Nc1ncnc2c1ncn2[C@@H]1O[C@H](COP(=O)(O)OP(=O)(O)OP(=O)(O)O)[C@@H](O)[C@H]1O [ATP] | His-OST1 autophosphorylated and phosphorylated histone proteins as a substrate | we conducted protein phosphorylation assays using Raf-like kinases in both of these clades | the kinase activity of Raf12, a B2 clade Raf-like kinase, was not inhibited by PP242 |  |
| COC(=O)[C@@]1(O)C[C@H]2O[C@]1(C)n1c3ccccc3c3c4c(c5c6ccccc6n2c5c31)C(=O)NC4 [K252a] |  |  |  | Kinase activity of His-OST1 was partially decreased by K252a, a potent kinase inhibitor |

From publication PMC12290280 (Plant and Cell Physiology, 2025)
